US20150376647A1, “DESIGNER PH SENSOR AS UNIVERSAL TRANSGENE CONTROLLER” (ETH ZURICH, priority 2013, published 2015)

Tested on: protein kinase A (PKA)
Test: PKA inhibition of pH sensor signaling in pDA62/pCK53-cotransfected HEK-293T
Format: cell-based, human
Conditions: 10 μM for 1 h, 2 h at pH 6.9, then pH 7.6, SEAP after 24 h
Method: PKA inhibition: 1.5×10^5 cells were pretreated with 10 μM H-89 (Sigma, cat. no. B1472) for 1 h, incubated for 2 h in cell culture medium adjusted to pH 6.9 and maintained for 24 h in cell culture medium adjusted to pH 7.6 before SEAP levels were assessed in the cell culture supernatant
SEAP: Production of human placental secreted alkaline phosphatase was quantified in cell culture supernatants (Schlatter S. et al., Gene 282, 19-31 (2002)) and mouse serum (Weber et. al., Nat. Biotech., 22, 1440-1444 (2004)) as described before.

Compound: O=S(=O)(NCCNC/C=C/c1ccc(Br)cc1)c1cccc2cnccc12 [H-89]
- TDAG8-to-PCRE signaling (SEAP levels): interrupted
